The values that follow are results of earlier work, collected in patent EP3653214A1, “IMPROVED DOSAGE REGIMEN FOR URSODEOXYCHOLIC ACID BASED ON ALKALINE PHOSPHATASE LEVELS IN THE TREATMENT OF CHRONIC CHOLESTATIC LIVER DISEASES” (Disphar International B.V., priority 2018, dated 2020).

Each structure is given as a SMILES string.

The conditions of this data set: in vivo.

Turning to `C[C@H](CCC(=O)O)[C@H]1CC[C@H]2[C@@H]3[C@@H](O)C[C@@H]4C[C@H](O)CC[C@]4(C)[C@H]3CC[C@]12C` [UDCA, ursodeoxycholic acid], the tolerability entry is listed as “generally well tolerated”.
